Paper PMC8307156, “Agelasine Diterpenoids and Cbl-b Inhibitory Ageliferins from the Coralline Demosponge Astrosclera willeyana” (Marine Drugs, 2021)

What follows are molecules tested against T1, Cbl-b ubiquitin ligase (N1/2 construct) (Homo sapiens, UniProt Q13191) (assay: Cbl-b biochemical assay (in vitro autoubiquitination ELISA, inhibition of ubiquitin ligase activity)). Details: in vitro enzymatic activity of Cbl-b ubiquitin ligase; 75-nM Cbl-b, 100 µM ATP, 60 min reaction; read-out: Cbl-b inhibitory activity IC50.
T1 construct: 75-nM Cbl-b (N1/2 construct) [27]
T1 sequence (Q13191 1-483 limits assumed): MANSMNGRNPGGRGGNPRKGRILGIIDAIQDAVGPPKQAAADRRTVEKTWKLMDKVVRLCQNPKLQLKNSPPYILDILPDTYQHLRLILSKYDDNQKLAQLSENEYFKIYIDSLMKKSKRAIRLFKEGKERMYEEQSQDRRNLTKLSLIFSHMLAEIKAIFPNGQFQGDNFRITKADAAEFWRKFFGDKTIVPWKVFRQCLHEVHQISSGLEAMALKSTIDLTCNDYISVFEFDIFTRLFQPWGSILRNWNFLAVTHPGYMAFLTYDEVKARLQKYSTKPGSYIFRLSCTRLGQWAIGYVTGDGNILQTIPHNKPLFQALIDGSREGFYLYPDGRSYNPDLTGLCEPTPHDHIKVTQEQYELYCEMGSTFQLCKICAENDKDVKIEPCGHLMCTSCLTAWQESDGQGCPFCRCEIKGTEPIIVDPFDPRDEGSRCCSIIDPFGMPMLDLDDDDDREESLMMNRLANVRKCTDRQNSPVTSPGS
Experimental: Compounds 1–10 were tested for their ability to inhibit the in vitro enzymatic activity of the Cbl-b ubiquitin ligase (Table 3). […] There was no clear pattern of N-methylation or bromine substitution of the two pyrrole rings that directly correlated with the observed Cbl-b inhibitory activity.
An extract of Astrosclera willeyana was identified as an active source in a screening campaign of prefractionated natural product samples for the inhibition of Cbl-b ubiquitin ligase activity. The bulk extract was fractionated as described above, and the resulting fractions were evaluated for activity in the Cbl-b bioassay, the details of which have already been reported. In brief, dose response experiments with chromatography fractions and purified compounds were carried out in a Tris-HCl-based enzymatic assay buffer with the following final composition: 75-nM Cbl-b (N1/2 construct), 50-nM Ube2d2 protein (E2), 10-nM UBE1protein (E1), 50-nM biotinylated ubiquitin, and 0.5-µM unlabeled recombinant ubiquitin. The assay buffer also contained the following additives: 0.1-mM dithiothreitol, 0.5-mg/mL bovine gelatin (type B), 0.5-mM magnesium chloride, and 0.01% Triton X-100. Reactions were initiated by the addition of ATP to a final concentration of 100 µM. Following initiation, reactions were transferred to plates previously precoated overnight with 10 µg/mL of the polyubiquitin-binding domain of Cbl-b (UBA). The UBA domain of Cbl-b binds ubiquitin chains, which results in the capture and enrichment of autopolyubiquitinated Cbl-b. Following a reaction interval of 60 min, the reactions were quenched by the addition of zinc to a final concentration of 2.4 mM. Quenched reactions were incubated at room temperature overnight. Following this incubation period reaction, plates were processed as standard ELISA plates: washed thrice in Tris-buffered saline (with 0.1% Tween-20, 1X TBST), probed with avidin-conjugated horse radish peroxidase, which binds captured biotinylated ubiquitin, washed again in 1X TBST (3X), and then, an avidin-HRP-dependent fluorescent signal (indicating avidin-HRP/biotin-polyubiquitin complexes captured by the UBA coating on the plate) was detected (excitation 325 nm, emission 420 nm) using an Infinite M1000 (Tecan US, Inc., Raleigh, NC, USA) plate reader.
For `CC(=CCn1cnc2c1c(N)nc[n+]2C)CCC1(C)C2=CCCC(C)(C)C2CCC1C` (stereo not shown) [Compound 1, Agelasine W], the IC50 was 57000 nM.
Molecule `CNc1nc[n+](C)c2ncn(C/C=C(\C)CC[C@]3(C)C4=CCCC(C)(C)[C@H]4CC[C@H]3C)c12` [Compound 2, Agelasine X] has an IC50 of 72000 nM.
Work on `CNc1nc[n+](C)c2ncn(C/C=C(\C)CC[C@@]3(C)[C@H](C)CC[C@]4(C)C(C)=CCC[C@H]34)c12` [Compound 3, Agelasine Y] yielded an IC50 of 66000 nM.
Molecule `Cn1cc(Br)cc1C(=O)NCC1C(CNC(=O)c2ccc(Br)[nH]2)Cc2[nH]c(N)nc2C1c1c[nH]c(N)n1` (stereo not shown) [Compound 4, N(1)-methylisoageliferin] has an IC50 of 33000 nM.
`Cn1c(Br)ccc1C(=O)NC[C@H]1Cc2nc(N)[nH]c2[C@@H](c2c[nH]c(N)n2)[C@@H]1CNC(=O)c1cc(Br)c[nH]1` [Compound 5, N(1′)-methylisoageliferin] showed an IC50 of 25000 nM.
Work on `Cn1cc(Br)cc1C(=O)NC[C@H]1Cc2nc(N)[nH]c2[C@@H](c2c[nH]c(N)n2)[C@@H]1CNC(=O)c1cc(Br)c[nH]1` [Compound 6, N(1′)-methylageliferin] yielded an IC50 of 30000 nM.
Work on `Cn1cc(Br)cc1C(=O)NC[C@@H]1[C@@H](CNC(=O)c2ccc(Br)n2C)Cc2nc(N)[nH]c2[C@H]1c1c[nH]c(N)n1` [Compound 7, N(1),N(1′)-dimethylisoageliferin] yielded an IC50 of 18000 nM.
For `Cn1cc(Br)cc1C(=O)NC[C@H]1Cc2nc(N)[nH]c2[C@@H](c2c[nH]c(N)n2)[C@@H]1CNC(=O)c1cc(Br)cn1C` [Compound 8, N(1),N(1′)-dimethylageliferin], the IC50 was 19000 nM.
Molecule `Cn1cc(Br)cc1C(=O)NC[C@H]1Cc2nc(N)[nH]c2[C@@H](c2c[nH]c(N)n2)[C@@H]1CNC(=O)c1cc(Br)c(Br)[nH]1` [Compound 9, N(1′)-methyl-2-bromoageliferin] has an IC50 of 19000 nM.
In the case of `Cn1c(C(=O)NC[C@H]2Cc3nc(N)[nH]c3[C@@H](c3c[nH]c(N)n3)[C@@H]2CNC(=O)c2cc(Br)c[nH]2)cc(Br)c1Br` [Compound 10, N(1′)-methyl-2′-bromoageliferin], the IC50 is reported as 35000 nM.
